These compounds were tested against T1, humanen CGRP-Rezeptor (Homo sapiens, UniProt O60894+Q16602) (assay: Binding studies with SK-N-MC cells expressing the human CGRP receptor (125I-CGRP displacement on membrane homogenate)). Settings: 50 pM 125I-Iodotyrosyl-CGRP, 180 min at room temperature.
T1 construct: SK-N-MC-Zellen werden in "Dulbecco's modified Eagle Medium" kultiviert; endogenous in cells; host or cells: SK-N-MC cells (membrane homogenate)
Procedure: A. Bindungsstudien mit (den humanen CGRP-Rezeptor exprimierenden) SK-N-MC-Zellen
SK-N-MC-Zellen werden in "Dulbecco's modified Eagle Medium" kultiviert. Das Medium konfluenter Kulturen wird entfernt. Die Zellen werden zweimal mit PBS-Puffer (Gibco 041-04190 M) gewaschen, durch Zugabe von PBS-Puffer, versetzt mit 0.02% EDTA, abgelöst und durch Zentrifugation isoliert. Nach Resuspension in 20 ml "Balanced Salts Solution" [BSS (in mM): NaCl 120, KCl 5.4, NaHCO3 16.2, MgSO4 0.8, NaHPO4 1.0, CaCl2 1.8, D-Glucose 5.5, HEPES 30, pH 7.40] werden die Zellen zweimal bei 100 x g zentrifugiert und in BSS resuspendiert. Nach Bestimmung der Zellzahl werden die Zellen mit Hilfe eines Ultra-Turrax homogenisiert und für 10 Minuten bei 3000 x g zentrifugiert. Der Überstand wird verworfen und das Pellet in Tris-Puffer (10 mM Tris, 50 mM NaCl, 5 mM MgCl2, 1 mM EDTA, pH 7.40), angereichert mit 1% Rinderserum-Albumin und 0.1% Bacitracin, rezentrifugiert und resuspendiert (1 ml / 1000000 Zellen). Das Homogenat wird bei -80°C eingefroren. Die Membranpräparationen sind bei diesen Bedingungen für mehr als 6 Wochen stabil.
Nach Auftauen wird das Homogenat 1:10 mit Assay-Puffer (50 mM Tris, 150 mM NaCl, 5 mM MgCl2, 1 mM EDTA, pH 7.40) verdünnt und 30 Sekunden lang mit einem Ultra-Turrax homogenisiert. 230 µl des Homogenats werden für 180 Minuten bei Raumtemperatur mit 50 pM ^125I-Iodotyrosyl-Calcitonin-Gene-Related Peptide (Amersham) und ansteigenden Konzentrationen der Testsubstanzen in einem Gesamtvolumen von 250 µl inkubiert. Die Inkubation wird durch rasche Filtration durch mit Polyethylenimin (0.1%) behandelte GF/B-Glasfaserfilter mittels eines Zellharvesters beendet. Die an Protein gebundene Radioaktivität wird mit Hilfe eines Gammacounters bestimmt. Als nichtspezifische Bindung wird die gebundene Radioaktivität nach Gegenwart von 1 µM humanem CGRP-alpha während der Inkubation definiert.
Die Analyse der Konzentrations-Bindungskurven erfolgt mit Hilfe einer computergestützten nichtlinearen Kurvenanpassung.

T1 sequence (Q16602 23-461): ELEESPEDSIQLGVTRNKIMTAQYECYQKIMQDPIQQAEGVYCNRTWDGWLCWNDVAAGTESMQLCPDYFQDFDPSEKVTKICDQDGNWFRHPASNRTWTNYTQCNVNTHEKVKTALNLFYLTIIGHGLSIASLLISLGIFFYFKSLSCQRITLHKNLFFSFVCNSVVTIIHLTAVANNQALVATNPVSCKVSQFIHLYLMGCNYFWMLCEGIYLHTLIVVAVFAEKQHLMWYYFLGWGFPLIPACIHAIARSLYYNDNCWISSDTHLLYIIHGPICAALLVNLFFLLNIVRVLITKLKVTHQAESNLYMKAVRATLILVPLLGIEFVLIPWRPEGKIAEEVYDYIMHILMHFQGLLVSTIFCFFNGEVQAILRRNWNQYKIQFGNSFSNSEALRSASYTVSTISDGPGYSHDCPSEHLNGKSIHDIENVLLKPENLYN
T1 sequence (O60894 27-148): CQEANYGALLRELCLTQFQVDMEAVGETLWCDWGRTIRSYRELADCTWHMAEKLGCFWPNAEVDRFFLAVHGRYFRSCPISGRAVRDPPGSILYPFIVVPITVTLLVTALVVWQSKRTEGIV

Row | Structure (SMILES) | Ki
1 | O=C(c1cc(N2CCC(n3c(=O)[nH]c4ncccc43)CC2)ncn1)c1c[nH]c2ccccc12 [(1)] | 120 nM
2 | COc1ccc2c(c1)CCN(C1CCN(c3cc(C(=O)c4cn(C)c5ccccc45)ncn3)CC1)C(=O)N2 [(4)] | 4 nM
3 | Cn1cc(C(=O)c2cc(N3CCC(n4c(=O)[nH]c5ccccc54)CC3)ncn2)c2ccccc21 [(9)] | 251 nM
4 | Cn1cc(C(=O)c2cc(N3CCC(n4cc(-c5ccccc5)[nH]c4=O)CC3)ncn2)c2ccccc21 [(14)] | 6 nM
5 | Cn1cc(C(=O)c2cc(N3CCC(n4c(=O)[nH]c5ncccc54)CC3)ncn2)c2ccc(F)cc21 [(21)] | 2 nM
6 | O=C(c1cc(N2CCC(n3c(=O)[nH]c4ncccc43)CC2)ncn1)c1cn(CCCN2CCCCC2)c2ccccc12 [(25)] | 16 nM
7 | CN(C)CCCn1cc(C(=O)c2cc(N3CCC(n4c(=O)[nH]c5ncccc54)CC3)ncn2)c2ccccc21 [(42)] | 6 nM

Same assay, conditions: 50 pM 125I-Iodotyrosyl-CGRP, 180 min at room temperature, read-out: Ki

Row | Structure (SMILES) | Ki
8 | Cn1cc(C(=O)c2cc(N3CCC(n4c(=O)[nH]c5ncccc54)CC3)ncn2)c2ccccc21 [(2)] | 5 nM
9 | Cc1ccc2c(C(=O)c3cc(N4CCC(n5c(=O)[nH]c6ncccc65)CC4)ncn3)cn(C)c2c1 [(30)] | 25 nM
